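Each compound was tested at five concentrations against cells in 96-well plates for 48 hours. GI50 is the concentration that inhibits growth by half.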 The source made the active and inactive calls. Cut-off read from the data, not from the text of the source: active = GI50 up to about 1.1 µM and inactive = higher.
Legend:
Test in all cases: DTP human tumour cell line panel, 48 h
ACHN = system: ACHN
COLO 205 = system: COLO 205
HCC 2998 = system: HCC 2998
HCT-116 = system: HCT-116
HCT-15 = system: HCT-15
HOP-92 = system: HOP-92
HT-29 = system: HT-29
NCI-H23 = system: NCI-H23
NCI-H522 = system: NCI-H522
OVCAR-4 = system: OVCAR-4
RXF 393 = system: RXF 393
SK-MEL-2 = system: SK-MEL-2
SK-MEL-5 = system: SK-MEL-5
SNB-78 = system: SNB-78
SR = system: SR
UACC-257 = system: UACC-257
Hs-578T = system: Hs-578T
MDA-MB-435 = system: MDA-MB-435
MDA-N = system: MDA-N
PC-3 = system: PC-3

With `Cc1cc2c(cc1C)[n+]([O-])c(C(=O)CC(=O)C(=O)Nc1c(C(C)C)cccc1C(C)C)c(C)[n+]2[O-]` the GI50 (ACHN) was > 100 µM (inactive), the GI50 (COLO 205) was > 100 µM (inactive) and the GI50 (HCC 2998) was > 100 µM (inactive). For the same compound, the GI50 (HCT-116) was > 100 µM (inactive), the GI50 (HCT-15) was > 100 µM and the GI50 (HOP-92) was > 100 µM (inactive). For the same compound, the GI50 (HT-29) was > 100 µM (inactive), the GI50 (NCI-H23) was > 100 µM (inactive) and the GI50 (NCI-H522) was > 100 µM (inactive). For the same compound, the GI50 (OVCAR-4) was > 100 µM (inactive), the GI50 (RXF 393) was > 100 µM (inactive) and the GI50 (SK-MEL-2) was > 100 µM (inactive). For the same compound, the GI50 (SK-MEL-5) was > 100 µM (inactive), the GI50 (SNB-78) was > 100 µM (inactive) and the GI50 (SR) was > 100 µM (inactive). For the same compound, the GI50 (UACC-257) was > 100 µM (inactive).

With `COCOCCC#CCO` the GI50 (ACHN) was > 100 µM (inactive), the GI50 (HCC 2998) was > 100 µM (inactive) and the GI50 (HCT-116) was 88.9 µM (inactive). The GI50 (HCT-15) was > 100 µM, the GI50 (HOP-92) was > 100 µM (inactive) and the GI50 (HT-29) was > 100 µM (inactive). For the same compound, the GI50 (NCI-H23) was 32.4 µM (inactive), the GI50 (NCI-H522) was 68.4 µM (inactive) and the GI50 (RXF 393) was > 100 µM (inactive). For the same compound, the GI50 (SK-MEL-2) was > 100 µM (inactive), the GI50 (SK-MEL-5) was 72.8 µM (inactive) and the GI50 (SNB-78) was > 100 µM (inactive). The GI50 (SR) was 83.8 µM (inactive) and the GI50 (UACC-257) was > 100 µM (inactive).

In the case of `CCOC(=O)COS(=O)(=O)C(F)(F)F`, the GI50 (ACHN) is reported as > 100 µM (inactive), the GI50 (COLO 205) is reported as 38 µM (inactive) and the GI50 (HCC 2998) is reported as > 100 µM (inactive). For the same compound, the GI50 (HCT-116) was 34.5 µM (inactive), the GI50 (HCT-15) was 18.5 µM and the GI50 (HOP-92) was > 100 µM (inactive). For the same compound, the GI50 (HT-29) was > 100 µM (inactive), the GI50 (NCI-H23) was > 100 µM (inactive) and the GI50 (NCI-H522) was > 100 µM (inactive). For the same compound, the GI50 (OVCAR-4) was > 100 µM (inactive), the GI50 (RXF 393) was > 100 µM (inactive) and the GI50 (SK-MEL-2) was > 100 µM (inactive). For the same compound, the GI50 (SK-MEL-5) was > 100 µM (inactive), the GI50 (SNB-78) was > 100 µM (inactive) and the GI50 (SR) was 24.7 µM (inactive). For the same compound, the GI50 (UACC-257) was > 100 µM (inactive).

With `Clc1ccc(CCN2CCOCC2)c(Cl)c1` the GI50 (ACHN) was > 100 µM (inactive), the GI50 (COLO 205) was > 100 µM (inactive) and the GI50 (HCC 2998) was > 100 µM (inactive). For the same compound, the GI50 (HCT-116) was > 100 µM (inactive), the GI50 (HCT-15) was > 100 µM and the GI50 (HOP-92) was > 100 µM (inactive). For the same compound, the GI50 (HT-29) was > 100 µM (inactive), the GI50 (NCI-H23) was > 100 µM (inactive) and the GI50 (NCI-H522) was > 100 µM (inactive). The GI50 (OVCAR-4) was > 100 µM (inactive), the GI50 (RXF 393) was 12.5 µM (inactive) and the GI50 (SK-MEL-2) was > 100 µM (inactive). The GI50 (SK-MEL-5) was > 100 µM (inactive), the GI50 (SNB-78) was > 100 µM (inactive) and the GI50 (SR) was > 100 µM (inactive). For the same compound, the GI50 (UACC-257) was > 100 µM (inactive).

In the case of `O=C1C2C3C=CC(C2C(=O)N1CN1CCSCC1)C1C2C(=O)N(CN4CCSCC4)C(=O)C2C31` (stereo unspecified), the GI50 (ACHN) is reported as > 77.6 µM (inactive), the GI50 (COLO 205) is reported as 56.5 µM (inactive) and the GI50 (HCC 2998) is reported as > 100 µM (inactive). For the same compound, the GI50 (HCT-116) was > 41.2 µM (inactive), the GI50 (HCT-15) was 34.8 µM and the GI50 (HOP-92) was > 75.5 µM (inactive). For the same compound, the GI50 (HT-29) was > 74 µM (inactive), the GI50 (NCI-H23) was > 100 µM (inactive) and the GI50 (NCI-H522) was > 100 µM (inactive). For the same compound, the GI50 (OVCAR-4) was > 100 µM (inactive), the GI50 (RXF 393) was > 100 µM (inactive) and the GI50 (SK-MEL-2) was > 100 µM (inactive). For the same compound, the GI50 (SK-MEL-5) was > 100 µM (inactive), the GI50 (SNB-78) was > 100 µM (inactive) and the GI50 (SR) was 39.7 µM (inactive). For the same compound, the GI50 (UACC-257) was > 100 µM (inactive).

For `C/C(=N\NC(=S)N1CCC(N2CCCCC2)CC1)c1ccccn1`, the GI50 (ACHN) was 2.41 µM (inactive), the GI50 (COLO 205) was 2.8 µM (inactive) and the GI50 (HCC 2998) was 11.7 µM (inactive). For the same compound, the GI50 (HCT-116) was 2.79 µM (inactive), the GI50 (HCT-15) was 2.4 µM and the GI50 (HOP-92) was 2.92 µM (inactive). For the same compound, the GI50 (HT-29) was 3.17 µM (inactive), the GI50 (Hs-578T) was 4.72 µM (inactive) and the GI50 (MDA-MB-435) was 2.4 µM (inactive). For the same compound, the GI50 (MDA-N) was 2.49 µM (inactive), the GI50 (NCI-H23) was 3.29 µM (inactive) and the GI50 (NCI-H522) was < 0.01 µM (active). The GI50 (OVCAR-4) was 4.73 µM (inactive), the GI50 (PC-3) was 3.56 µM (inactive) and the GI50 (RXF 393) was 1.36 µM (inactive). For the same compound, the GI50 (SK-MEL-2) was > 100 µM (inactive), the GI50 (SK-MEL-5) was 2.66 µM (inactive) and the GI50 (SNB-78) was 11.5 µM (inactive). For the same compound, the GI50 (SR) was 0.519 µM (active) and the GI50 (UACC-257) was 2.9 µM (inactive).

For `CN(C)CCCNC(=O)c1cccc2nc3ccccc3nc12`, the GI50 (ACHN) was 7.43 µM (inactive), the GI50 (COLO 205) was 6.95 µM (inactive) and the GI50 (HCC 2998) was 14.8 µM (inactive). The GI50 (HCT-116) was 4.83 µM (inactive), the GI50 (HCT-15) was 15.2 µM and the GI50 (HOP-92) was 50.4 µM (inactive). For the same compound, the GI50 (HT-29) was 6.75 µM (inactive), the GI50 (NCI-H23) was 14.8 µM (inactive) and the GI50 (NCI-H522) was 26.6 µM (inactive). For the same compound, the GI50 (OVCAR-4) was 14.1 µM (inactive), the GI50 (RXF 393) was 15.6 µM (inactive) and the GI50 (SK-MEL-2) was 14.8 µM (inactive). The GI50 (SK-MEL-5) was > 54 µM (inactive), the GI50 (SNB-78) was 14.3 µM (inactive) and the GI50 (SR) was 4.57 µM (inactive). The GI50 (UACC-257) was 13.2 µM (inactive).

In the case of `C=CCCCCCCCCCP(=O)(c1ccccc1)c1ccc2c(c1)OCCOCCOCCOCCO2` (stereo unspecified), the GI50 (ACHN) is reported as 16.7 µM (inactive), the GI50 (COLO 205) is reported as 15.9 µM (inactive) and the GI50 (HCC 2998) is reported as 17.3 µM (inactive). For the same compound, the GI50 (HCT-116) was 10.4 µM (inactive), the GI50 (HCT-15) was 13.8 µM and the GI50 (HOP-92) was > 100 µM (inactive). The GI50 (HT-29) was 12.2 µM (inactive), the GI50 (NCI-H23) was 14.9 µM (inactive) and the GI50 (NCI-H522) was 12.1 µM (inactive). For the same compound, the GI50 (OVCAR-4) was 11.5 µM (inactive), the GI50 (RXF 393) was 14.2 µM (inactive) and the GI50 (SK-MEL-2) was 18 µM (inactive). The GI50 (SK-MEL-5) was 11.3 µM (inactive), the GI50 (SNB-78) was 19.1 µM (inactive) and the GI50 (SR) was 7.16 µM (inactive). For the same compound, the GI50 (UACC-257) was 16.7 µM (inactive).

`CN(C)CC1CC/C(=C\c2ccc(Cl)c(Cl)c2)C1=O` (stereo unspecified) was tested, and the GI50 (ACHN) was > 45.1 µM (inactive), the GI50 (COLO 205) was 32.9 µM (inactive) and the GI50 (HCC 2998) was > 40.8 µM (inactive). The GI50 (HCT-116) was 24.3 µM (inactive), the GI50 (HCT-15) was 12.7 µM and the GI50 (HOP-92) was 17.7 µM (inactive). The GI50 (HT-29) was 25.5 µM (inactive), the GI50 (NCI-H23) was 20.6 µM (inactive) and the GI50 (NCI-H522) was 6.38 µM (inactive). The GI50 (OVCAR-4) was 19 µM (inactive), the GI50 (RXF 393) was > 45.4 µM (inactive) and the GI50 (SK-MEL-2) was > 45.1 µM (inactive). For the same compound, the GI50 (SK-MEL-5) was 45.7 µM (inactive), the GI50 (SNB-78) was 31.5 µM (inactive) and the GI50 (SR) was 2.2 µM (inactive). The GI50 (UACC-257) was 24.7 µM (inactive).
